Patent US20140128385A1 (NOVARTIS AG, priority 2011, published 2014)
Where a name gives a salt, the structure may show the parent alone.

Biological target: T1, BACE-2 (Homo sapiens, UniProt Q9Y5Z0)
T1 construct: Recombinant BACE-2 (extracellular domain, expressed in baculovirus and purified using standard methods); made in house
T1 sequence (Q9Y5Z0 63-473 limits assumed): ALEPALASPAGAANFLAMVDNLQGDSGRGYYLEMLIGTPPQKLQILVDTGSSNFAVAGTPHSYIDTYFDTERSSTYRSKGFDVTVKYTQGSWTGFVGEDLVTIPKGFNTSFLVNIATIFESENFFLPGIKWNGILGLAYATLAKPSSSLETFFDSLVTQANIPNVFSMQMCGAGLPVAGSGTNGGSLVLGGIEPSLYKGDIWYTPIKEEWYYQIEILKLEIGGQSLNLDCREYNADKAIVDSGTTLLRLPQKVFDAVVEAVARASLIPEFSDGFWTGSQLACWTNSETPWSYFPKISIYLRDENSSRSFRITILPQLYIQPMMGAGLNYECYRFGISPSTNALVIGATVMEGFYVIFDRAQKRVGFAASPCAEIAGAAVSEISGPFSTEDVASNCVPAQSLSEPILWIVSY
Assay: assay for inhibition of BACE-2
Assay type: biochemical

Row | Compound | IC50 [nM]
1 | 5-Bromo-pyridine-2-carboxylic acid[3-((S)-3-amino-5-difluoromethyl-2,5,6,7-tetrahydro-[1,4]oxazepin-5-yl)-4-fluoro-phenyl]-amide hydrochloride [Example 96] | 44
2 | CC1(c2cccc(NC(=O)c3ccco3)c2)COCC(N)=N1 (centres unmarked) [Example 1, Furan-2-carboxylic acid [3-(5-amino-3-methyl-3,6-dihydro-2H-[1,4]oxazin-3-yl)-phenyl]-amide hydrochloride] | 61
3 | CC1(c2cccc(NC(=O)c3ccc(Br)cn3)c2)COCC(N)=N1 (centres unmarked) [Example 2, 5-Bromo-pyridine-2-carboxylic acid [3-(5-amino-3-methyl-3,6-dihydro-2H-[1,4]oxazin-3-yl)-phenyl]-amide hydrochloride] | 87
4 | C[C@@]1(c2cccc(NC(=O)c3ccc(Br)cn3)c2)COCC(N)=N1 [Example 3, 5-Bromo-pyridine-2-carboxylic acid [3-((R)-5-amino-3-methyl-3,6-dihydro-2H-[1,4]oxazin-3-yl)-phenyl]-amide hydrochloride] | 56
5 | C[C@]1(c2cccc(NC(=O)c3ccc(Br)cn3)c2)COCC(N)=N1 [Example 4, 5-Bromo-pyridine-2-carboxylic acid [3-((S)-5-amino-3-methyl-3,6-dihydro-2H-[1,4]oxazin-3-yl)-phenyl]-amide hydrochloride] | > 10000
6 | Cc1nc(C(=O)Nc2cccc(C3(C)COCC(N)=N3)c2)co1 (centres unmarked) [Example 5, 2-Methyl-oxazole-4-carboxylic acid [3-(5-amino-3-methyl-3,6-dihydro-2H-[1,4]oxazin-3-yl)-phenyl]-amide hydrochloride] | 373
7 | Cc1cnc(C(=O)Nc2cccc(C3(C)COCC(N)=N3)c2)cn1 (centres unmarked) [Example 6, 5-Methyl-pyrazine-2-carboxylic acid [3-(5-amino-3-methyl-3,6-dihydro-2H-[1,4]oxazin-3-yl)-phenyl]-amide hydrochloride] | 3440
8 | CC1(c2cccc(NC(=O)c3ncc(Br)cn3)c2)COCC(N)=N1 (centres unmarked) [Example 7, 5-Bromo-pyrimidine-2-carboxylic acid [3-(5-amino-3-methyl-3,6-dihydro-2H-[1,4]oxazin-3-yl)-phenyl]-amide hydrochloride] | 309
9 | CC1(c2cccc(NC(=O)c3cn4ccccc4n3)c2)COCC(N)=N1 (centres unmarked) [Example 8, Imidazo[1,2-a]pyridine-2-carboxylic acid [3-(5-amino-3-methyl-3,6-dihydro-2H-[1,4]oxazin-3-yl)-phenyl]-amide hydrochloride] | 7230
10 | CC1(c2cccc(NC(=O)c3ncccc3F)c2)COCC(N)=N1 (centres unmarked) [Example 9, 3-Fluoro-pyridine-2-carboxylic acid [3-(5-amino-3-methyl-3,6-dihydro-2H-[1,4]oxazin-3-yl)-phenyl]-amide hydrochloride] | 663
11 | Cc1nc(C(=O)Nc2cccc(C3(C)COCC(N)=N3)c2)c(C)o1 (centres unmarked) [Example 10, 2,5-Dimethyl-oxazole-4-carboxylic acid [3-(5-amino-3-methyl-3,6-dihydro-2H-[1,4]oxazin-3-yl)-phenyl]-amide hydrochloride] | 289
12 | Cc1nc(C(=O)Nc2cccc(C3(C)COCC(N)=N3)c2)cs1 (centres unmarked) [Example 11, 2-Methyl-thiazole-4-carboxylic acid [3-(5-amino-3-methyl-3,6-dihydro-2H-[1,4]oxazin-3-yl)-phenyl]-amide hydrochloride] | 1060
13 | CC1(c2cccc(NC(=O)c3ccc(O)nn3)c2)COCC(N)=N1 (centres unmarked) [Example 12, 6-Hydroxy-pyridazine-3-carboxylic acid [3-(5-amino-3-methyl-3,6-dihydro-2H-[1,4]oxazin-3-yl)-phenyl]-amide hydrochloride] | 2260
14 | CC1(c2cccc(NC(=O)c3ccccn3)c2)COCC(N)=N1 (centres unmarked) [Example 13, Pyridine-2-carboxylic acid [3-(5-amino-3-methyl-3,6-dihydro-2H-[1,4]oxazin-3-yl)-phenyl]-amide hydrochloride] | 431
15 | CC1(c2cccc(NC(=O)c3ccc(C#N)cn3)c2)COCC(N)=N1 (centres unmarked) [Example 14, 5-Cyano-pyridine-2-carboxylic acid [3-(5-amino-3-methyl-3,6-dihydro-2H-[1,4]oxazin-3-yl)-phenyl]-amide hydrochloride] | 335
16 | CC1(c2cccc(NC(=O)c3cnc(-n4ccc(C(F)(F)F)n4)cn3)c2)COCC(N)=N1 (centres unmarked) [Example 15, 5-(3-Trifluoromethyl-pyrazol-1-yl)-pyrazine-2-carboxylic acid [3-(5-amino-3-methyl-3,6-dihydro-2H-[1,4]oxazin-3-yl)-phenyl]-amide hydrochloride] | 6590
17 | CC1(c2cccc(NC(=O)c3ncc(C(F)(F)F)cc3Cl)c2)COCC(N)=N1 (centres unmarked) [Example 17, 3-Chloro-5-trifluoromethyl-pyridine-2-carboxylic acid [3-(5-amino-3-methyl-3,6-dihydro-2H-[1,4]oxazin-3-yl)-phenyl]-amide hydrochloride] | 694
18 | COc1cnc(C(=O)Nc2cccc(C3(C)COCC(N)=N3)c2)cn1 (centres unmarked) [Example 18, 5-Methoxy-pyrazine-2-carboxylic acid [3-(5-amino-3-methyl-3,6-dihydro-2H-[1,4]oxazin-3-yl)-phenyl]-amide hydrochloride] | 1660
19 | CC1(c2cccc(NC(=O)c3cnc(O)cn3)c2)COCC(N)=N1 (centres unmarked) [Example 19] | 3180
20 | CC1(c2cccc(NC(=O)c3cc(Br)co3)c2)COCC(N)=N1 (centres unmarked) [Example 20, 4-Bromo-furan-2-carboxylic acid [3-(5-amino-3-methyl-3,6-dihydro-2H-[1,4]oxazin-3-yl)-phenyl]-amide hydrochloride] | 226

Second part, the compound after the results:

Row | IC50 [nM] | Compound
21 | 1250 | CCC1C(N)=NC(C)(c2cccc(NC(=O)c3ccc(Br)cn3)c2)C(=O)N1C (mixture of isomers) [Example 200, 5-Bromo-pyridine-2-carboxylic acid [3-(6-amino-5-ethyl-2,4-dimethyl-3-oxo-2,3,4,5-tetrahydro-pyrazin-2-yl)-phenyl]-amide]
22 | 41 | Cc1cc(C#N)cnc1C(=O)Nc1ccc(F)c(C2(C)COC(CF)(CF)C(N)=N2)c1 (racemic) [Example 251, 5-Cyano-3-methyl-pyridine-2-carboxylic acid [3-(5-amino-6,6-bis-fluoromethyl-3-methyl-3,6-dihydro-2H-[1,4]oxazin-3-yl)-4-fluoro-phenyl]-amide]
23 | 363 | CC1(c2cccc(NC(=O)c3ccc(Br)cn3)n2)COCC(N)=N1 (racemic) [Example 258, 5-Bromo-pyridine-2-carboxylic acid [6-(5-amino-3-methyl-3,6-dihydro-2H-[1,4]-oxazin-3-yl)-pyridin-2-yl]-amide]
24 | 6 | C[C@@]1(c2cccc(NC(=O)c3ccc(Br)cn3)c2)CO[C@@](C)(C(F)(F)F)C(N)=N1 (relative stereo) [Example 66, 5-Bromo-pyridine-2-carboxylic acid [3-((3R*,6R*)-5-amino-3,6-dimethyl-6-trifluoromethyl-3,6-dihydro-2H-[1,4]oxazin-3-yl)-phenyl]-amide hydrochloride]
25 | 355 | C[C@H]1OC[C@](c2cc(NC(=O)c3ccc(C#N)cn3)ccc2F)(C(F)F)N=C1N (relative stereo) [Example 75, 5-Cyano-pyridine-2-carboxylic acid [3-((3R*,6R*)-5-amino-3-difluoromethyl-6-methyl-3,6-dihydro-2H-[1,4]oxazin-3-yl)-4-fluoro-phenyl]-amide hydrochloride]
26 | 175 | C[C@@H]1OC[C@](c2cc(NC(=O)c3ccc(C#N)cn3)ccc2F)(C(F)F)N=C1N (relative stereo) [Example 76, 5-Cyano-pyridine-2-carboxylic acid [3-((3R*,6S*)-5-amino-3-difluoromethyl-6-methyl-3,6-dihydro-2H-[1,4]oxazin-3-yl)-4-fluoro-phenyl]-amide hydrochloride]
27 | 42 | C[C@H]1OC[C@](c2cc(NC(=O)c3ccc(Br)cn3)ccc2F)(C(F)F)N=C1N (relative stereo) [Example 77, 5-Bromo-pyridine-2-carboxylic acid [3-((3R*,6R*)-5-amino-3-difluoromethyl-6-methyl-3,6-dihydro-2H-[1,4]oxazin-3-yl)-4-fluoro-phenyl]-amide hydrochloride]
28 | 22 | C[C@@H]1OC[C@](c2cc(NC(=O)c3ccc(Br)cn3)ccc2F)(C(F)F)N=C1N (relative stereo) [Example 78, 5-Bromo-pyridine-2-carboxylic acid [3-((3R*,6S*)-5-amino-3-difluoromethyl-6-methyl-3,6-dihydro-2H-[1,4]oxazin-3-yl)-4-fluoro-phenyl]-amide hydrochloride]
29 | 116 | Cc1cc(OC(F)F)cnc1C(=O)Nc1ccc(F)c([C@]2(C(F)F)CNCC(N)=N2)c1 (single isomer, unassigned) [Example 212]
30 | 115 | COc1cnc(C(=O)Nc2ccc(F)c([C@]3(C(F)F)CNCC(N)=N3)c2)c(N)n1 (single isomer, unassigned) [Example 213]
31 | 33 | Cc1cc(C#N)cnc1C(=O)Nc1ccc(F)c([C@]2(C)COC(CF)(CF)C(N)=N2)c1 (single isomer, unassigned) [Example 252]
32 | 1500 | CC1(c2cccc(NC(=O)c3ccc(C(F)(F)F)cn3)c2)COCC(N)=N1 (centres unmarked) [Example 22, 5-Trifluoromethyl-pyridine-2-carboxylic acid [3-(5-amino-3-methyl-3,6-dihydro-2H-[1,4]oxazin-3-yl)-phenyl]-amide hydrochloride]
